Data on 65 compounds can be found in US12552748B2, “Pyridine (thio)amides as fungicidal compounds” (Bayer Aktiengesellschaft, priority 2020, dated 2026).

Marks after values point to notes of the source that are not given here.

The data set in a line: physchem. Type of data set: physicochemical. The procedure, abridged: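 Reversed-phase HPLC per EEC directive 79/831 Annex V.A8, calibrated with straight-chain alkan-2-ones (C3–C16) of known Log P via linear interpolation of retention times. Lambda-max from UV spectra 200–400 nm at chromatographic peaks.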

`O=C(NCCc1ccc2c(c1)OCCO2)c1cc(Cl)ncc1Oc1cccc(C(F)(F)F)c1` [Compound I-105]: the LogP is 3.84^[a]. Still for that read-out and setting: to `O=C(NCCc1ccc(C(F)(F)F)cc1Cl)c1cc(Cl)ncc1Oc1cccc(C(F)(F)F)c1` [Compound I-192] belongs 4.95^[a]; to `Cc1cccc(Oc2cnc(C)cc2C(=O)NCC(F)c2ccc(Cl)cc2Cl)c1` (racemic) [Compound I-161], 4.13^[a]. Still for that read-out and setting: to `O=C(NCCc1ccc(C(F)(F)F)cn1)c1cc(Cl)ncc1Oc1cccc(C(F)(F)F)c1` [Compound I-107] belongs 3.91^[a]. Turning to `Cc1cccc(Oc2cnc(Cl)cc2C(=O)NCC(F)c2ccc(Cl)cc2Cl)c1` (racemic) [Compound I-043], the LogP was 4.92^[a]. `COC(=O)c1cc(C(C)=O)ncc1Oc1cccc(C(F)(F)F)c1` [Compound 1-012, methyl 2-acetyl-5-[3-(trifluoromethyl)phenoxy]pyridine-4-carboxylate] registered a chromatographic logP of 3.59. On to `Cc1ccc(CCNC(=O)c2cc(Cl)ncc2Oc2cccc(C3CC3)c2)c(C)c1` [Compound I-214], for which the LogP was 5.14^[a]. `Cc1ccc(CCNC(=O)c2cc(C)ncc2Oc2cccc(C3CC3)c2F)c(C)c1` [Compound I-262]: the LogP was 4.32^[a]. On the same count and under the same terms, next, `Cc1ccc(CCNC(=O)c2cc(Cl)ncc2Oc2ccc3c(c2)CCC3)c(C)c1` [Compound I-232]: 5.49^[a]; `O=C(O)c1cc(Cl)ncc1Oc1cccc(Cl)c1` [Compound 1-005]: 2.76^[a]. On the same count and under the same terms, next, `Cc1ccc(CCNC(=O)c2cc(Cl)ncc2Oc2cnc3ccccc3c2)c(C)c1` [Compound I-223]: 3.34^[a]; `O=C(NCC(F)(F)c1ccc(Br)cc1Cl)c1cc(Cl)ncc1Oc1cccc(C2CC2)c1F` [Compound I-210]: 5.31^[a]; `Cc1ccc(CCNC(=O)c2cc(Cl)ncc2Oc2cccc(I)c2)c(C)c1` [Compound I-141]: 5.01^[a]. On the same count and under the same terms, next, `Cc1ccc(CCNC(=O)c2cc(C3CC3)ncc2Oc2cccc(C(F)(F)F)c2)c(C)c1` [Compound I-194]: 4.97^[a]; `C#Cc1cc(C(=O)NC(C)c2cn(C)c3cc(Cl)ccc23)c(Oc2cccc(C(F)(F)F)c2)cn1` (centres unmarked) [Compound I-031]: 4.27^[a]; `CCc1cc(C(=O)NCCc2ccc(C)cc2C)c(Oc2cccc(C(F)(F)F)c2)cn1` [Compound I-030]: 4.49^[a].

As for `C#Cc1cc(C(=O)OC)c(Oc2cccc(C(F)(F)F)c2)cn1` [Compound 1-003], the LogP is 3.46^[a].

On to `C=Cc1cc(C(=O)NCC(F)(F)c2ccc(C)cc2C)c(Oc2cccc(C3CC3)c2F)cn1` [Compound I-173], for which the LogP was 5.04^[a].

For the compound `Cc1ccc(CCNC(=O)c2cc(Cl)ncc2Oc2cccc(C(F)(F)F)c2)c(C)c1` [Compound I-002], the LogP was 4.73^[a]. On the same count and under the same terms, next, `Cc1ccc(C(F)CNC(=O)c2cc(C)ncc2Oc2cccc(C(F)(F)F)c2)c(Cl)c1` (racemic) [Compound I-263]: 4.08^[a]; `Cc1ccc(CCNC(=O)c2cc(Cl)ncc2Oc2cccc([N+](=O)[O-])c2)c(C)c1` [Compound I-130]: 4.08^[a]. As for `N#Cc1ccc(C(F)(F)CNC(=O)c2cc(Cl)ncc2Oc2cccc(C(F)F)c2)c(Cl)c1` [Compound I-156], the LogP is 3.87^[a].

As for `Cc1ccc(C(F)(F)CNC(=O)c2cc(Cl)ncc2Oc2cccc(C(F)(F)F)c2)c(Cl)c1` [Compound I-201], the LogP is 4.66^[a]. On to `C#Cc1cc(C(=O)NCC(F)(F)c2ccc(C)cc2C)c(Oc2cccc(C(F)(F)F)c2)cn1` [Compound I-032], for which the LogP is 4.39^[a].

For the compound `COc1cccc(Oc2cnc(Cl)cc2C(=O)NCCc2ccc(C)cc2C)c1` [Compound I-252], the LogP was 4.42^[a].

In the case of `Cc1ccc(C(F)(F)CNC(=O)c2cc(C)ncc2Oc2cccc(C3CC3)c2)c(C)c1` [Compound I-070], the LogP was 4.44^[a]. On the same count and under the same terms, to `Cc1ccc(C(F)(F)CNC(=O)c2cc(C)ncc2Oc2cccc(C(F)F)c2)c(C)c1` [Compound I-049] belongs 3.73^[a]; to `Cc1cccc(Oc2cnc(C)cc2C(=O)NCCc2ccc(C)cc2C)c1` [Compound I-255], 3.86^[a]; to `Cc1ccc(CCNC(=O)c2cc(C)ncc2Oc2cccc(C(F)(F)F)c2)c(C)c1` [Compound I-028], 4.03^[a]. The same measure, in the same setting: next, `C#Cc1cc(C(=O)NCCc2ccc(C)cc2C)c(Oc2cccc(C(F)(F)F)c2)cn1` [Compound I-191]: 4.34^[a]; `Cc1ccc(C(F)CNC(=O)c2cc(Cl)ncc2Oc2cccc(C(F)(F)F)c2)cc1C` (racemic) [Compound I-079]: 4.70^[a]; `O=C(NCC(F)c1ccc(Cl)cc1Cl)c1cc(C2CC2)ncc1Oc1cccc(C2CC2)c1` (centres unmarked) [Compound I-253]: 5.42^[a].

In the case of `Cc1ccc(CCNC(=O)c2cc(C3CCOC3)ncc2Oc2cccc(C(F)(F)F)c2)c(C)c1` (centres unmarked) [Compound I-121], the LogP was 4.30^[a].

Regarding `CCc1cc(C(=O)NCC(F)c2ccc(Cl)cc2Cl)c(Oc2cccc(C3CC3)c2)cn1` (racemic) [Compound I-190], the LogP is 4.92^[a]. Same read-out and setting: next, `Cc1cc(C(=O)NCC(F)c2ccc(Cl)cc2Cl)c(Oc2cccc(C3CC3)c2F)cn1` (racemic) [Compound I-078]: 4.49^[a]; `Cc1ccc(CCNC(=O)c2cc(Cl)ncc2Oc2cccc(C3CC3F)c2)c(C)c1` (single isomer, unassigned) [Compound I-265]: 4.70^[a]; `O=C(NCC(F)(F)c1cc(Cl)sc1Cl)c1cc(Cl)ncc1Oc1cccc(C(F)(F)F)c1` [Compound I-211]: 5.04^[a]. On the same count and under the same terms, next, `Cc1ccc(CCNC(=O)c2cc(C(C)F)ncc2Oc2cccc(C(F)(F)F)c2)c(C)c1` (centres unmarked) [Compound I-114]: 4.62^[a].

As for `COc1cc(C(=O)NCC(F)(F)c2ccc(Br)cc2Cl)c(Oc2cccc(C(F)(F)F)c2)cn1` [Compound I-003], the LogP was 4.95^[a]. Still for that read-out and setting: next, `Cc1ccc(CCNC(=O)c2cc(C(F)(F)F)ncc2Oc2cccc(C(F)(F)F)c2)c(C)c1` [Compound I-208]: 5.04^[a]; `O=C(NCC(F)(F)c1ccc(Cl)cc1Cl)c1cc(Cl)ncc1Oc1cccc(C(F)(F)F)c1` [Compound I-009]: 4.82^[a].

`C=Cc1cccc(Oc2cnc(Cl)cc2C(=O)NCC(F)(F)c2ccc(C)cc2C)c1` [Compound I-155]: the LogP is 4.96^[a]. On the same count and under the same terms, to `Cc1ccc(CONC(=O)c2cc(Cl)ncc2Oc2cccc(C(F)(F)F)c2)c(C)c1` [Compound I-017] belongs 4.26^[a]; to `O=C(NCC(F)c1ccc(Cl)c(Cl)c1)c1cc(Cl)ncc1Oc1cccc(C(F)(F)F)c1` (racemic) [Compound I-082], 4.81^[a]; to `CCc1cc(C(=O)NCC(F)(F)c2ccc(C)cc2C)c(Oc2cccc(C3CC3)c2)cn1` [Compound I-212], 4.90^[a]. Still for that read-out and setting: to `Cc1ccc(C(F)(F)CNC(=O)c2cc(Cl)ncc2Oc2cncc(C(F)(F)F)c2)c(C)c1` [Compound I-163] belongs 4.15^[a]; to `O=C(NCC(F)c1ccc(Cl)cc1Cl)c1cc(-c2ccncc2Cl)ncc1Oc1cccc(C(F)(F)F)c1` (racemic) [Compound I-195], 4.68^[a]. On the same count and under the same terms, next, `Cc1ccc(CCNC(=O)c2cc(C3CCCC3)ncc2Oc2cccc(C(F)(F)F)c2)c(C)c1` [Compound I-122]: 5.57^[a]; `Cc1ccc(C(F)(F)CNC(=O)c2cc(Cl)nc(Cl)c2Oc2cccc(C(F)(F)F)c2)c(C)c1` [Compound I-247]: 5.16^[a]; `Cc1ccc(C(F)(F)CNC(=O)c2c(Br)cnc(Cl)c2Oc2cccc(Cl)c2)c(C)c1` [Compound I-178]: 5.04^[a].

Turning to `O=C(NCC(F)c1ccc(Cl)cc1Cl)c1cc(Cl)ncc1Oc1cccc(Cl)c1` (racemic) [Compound I-035], the LogP was 4.80^[a]. Regarding `CCN(CCc1ccccc1)C(=O)c1cc(Cl)ncc1Oc1cccc(C(F)(F)F)c1` [Compound I-152], the LogP is 4.44^[a]. Still for that read-out and setting: to `Cc1ccc(C(F)(F)CNC(=O)c2cc(C)ncc2Oc2cccc(C(F)(F)F)c2)c(Cl)c1` [Compound I-033] belongs 4.19^[a].

Take `CC(=O)c1ccc(C(F)(F)CNC(=O)c2cc(Cl)ncc2Oc2cccc(C(F)F)c2)c(Cl)c1` [Compound I-119]: the LogP was 3.81^[a]. Still for that read-out and setting: next, `Cc1ccc(CCNC(=O)c2cc(Cl)ncc2Oc2cccc(-c3ccccc3)c2)c(C)c1` [Compound I-151]: 5.44^[a]. `O=C(NCC(F)(F)c1ccc(Cl)cn1)c1cc(Cl)ncc1Oc1cccc(C(F)(F)F)c1` [Compound I-260]: the LogP was 3.99^[a]. As for `Cc1ccc(C(F)(F)CNC(=O)c2c(Oc3cccc(C(F)(F)F)c3)cnc(Cl)c2F)c(C)c1` [Compound I-181], the LogP is 4.85^[a].

Consider `Cc1ccc(C(F)CNC(=O)c2cc(C)ncc2Oc2cccc(C3CC3)c2)c(Cl)c1` (racemic) [Compound I-073], for which the LogP is 4.30^[a]. Same read-out and setting: to `COCCc1cc(C(=O)NCCc2ccc(C)cc2C)c(Oc2cccc(C(F)(F)F)c2)cn1` [Compound I-118] belongs 4.16^[a]. Still for that read-out and setting: next, `Cc1ccc(CCNC(=O)c2cc(Cl)ncc2Oc2cccc(C3CCC3)c2)c(C)c1` [Compound I-257]: 5.84^[a]. On the same count and under the same terms, to `Cc1ccc(CCNC(=O)c2cc(Cl)nc(Cl)c2Oc2cccc(C(F)(F)F)c2)c(Cl)c1` [Compound I-245] belongs 5.17^[a].

With `COc1c(Cl)ncc(Oc2cccc(Cl)c2)c1C(=O)NCC(F)(F)c1ccc(C)cc1C` [Compound I-200], the LogP was 4.62^[a].

As for `Cc1ccc(C(F)CNC(=O)c2cc(C)ncc2Oc2cccc(Cl)c2)c(Cl)c1` (racemic) [Compound I-054], the LogP was 3.98^[a]. The same measure, in the same setting: next, `N#CN(CCc1ccc(Cl)cc1)C(=O)c1cc(Cl)ncc1Oc1cccc(C(F)(F)F)c1` [Compound I-207]: 4.89^[a]; `Cc1ccc(CCNC(=O)c2cc(Cl)ncc2Oc2cccc(C3CC3)c2F)c(C)c1` [Compound I-062]: 5.11^[a].

Usually chromatographic logP stands for a lipophilicity value derived from retention on a column. A lower chromatographic logP goes with a more hydrophilic compound.
